Laboratory results from ChEMBL document CHEMBL2429757, “Discovery of a novel series of potent non-nucleoside inhibitors of hepatitis C virus NS5B” (J Med Chem, 2013).

Assay: Thermal aqueous solubility of the compound at pH 6.4 by high throughput assay
Format: physicochemical
Details: buffer

COc1c(/C=C/c2ccc(NS(C)(=O)=O)cc2)cc(-c2ccc[nH]c2=O)cc1C(C)(C)C
solubility: < 1 µg/mL
